PubChem BioAssay (NCI)
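Protocol summary: plate cells (96-well), add compound at 5 concentrations, incubate 48 h, interpolate endpoints linearly. GI50 is the concentration that inhibits growth by half. TGI marks complete inhibition of growth.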

Key:
Assay in all cases: DTP human tumour cell line panel, 48 h
SK-MEL-28 melanoma = tested on: SK-MEL-28 melanoma
HS 578T breast = tested on: HS 578T breast
HCC-2998 colon = tested on: HCC-2998 colon
SF-295 CNS = tested on: SF-295 CNS
HOP-92 NSCLC = tested on: HOP-92 NSCLC
KM12 colon = tested on: KM12 colon
NCI-H23 lung = tested on: NCI-H23 lung
DU-145 prostate = tested on: DU-145 prostate
OVCAR-8 ovarian = tested on: OVCAR-8 ovarian
SR leukemia = tested on: SR leukemia
SNB-19 CNS = tested on: SNB-19 CNS
MOLT-4 leukemia = tested on: MOLT-4 leukemia
A549 NSCLC = tested on: A549 NSCLC
PC-3 prostate = tested on: PC-3 prostate
SNB-75 CNS = tested on: SNB-75 CNS
OVCAR-4 ovarian = tested on: OVCAR-4 ovarian
RXF 393 renal = tested on: RXF 393 renal
UO-31 renal = tested on: UO-31 renal
MDA-MB-468 breast = tested on: MDA-MB-468 breast
A498 renal = tested on: A498 renal
ACHN renal = tested on: ACHN renal
TK-10 renal = tested on: TK-10 renal
EKVX NSCLC = tested on: EKVX NSCLC
HCT-15 colon = tested on: HCT-15 colon
CCRF-CEM leukemia = tested on: CCRF-CEM leukemia
HT29 colon = tested on: HT29 colon
SN12C renal = tested on: SN12C renal
HL-60(TB) leukemia = tested on: HL-60(TB) leukemia
MDA-MB-231 breast = tested on: MDA-MB-231 breast
SF-268 CNS = tested on: SF-268 CNS
HOP-62 NSCLC = tested on: HOP-62 NSCLC
UACC-62 melanoma = tested on: UACC-62 melanoma
OVCAR-3 ovarian = tested on: OVCAR-3 ovarian
SK-MEL-2 melanoma = tested on: SK-MEL-2 melanoma
SF-539 CNS = tested on: SF-539 CNS
IGROV1 ovarian = tested on: IGROV1 ovarian
NCI-H226 lung = tested on: NCI-H226 lung
UACC-257 melanoma = tested on: UACC-257 melanoma
K-562 leukemia = tested on: K-562 leukemia
U251 CNS = tested on: U251 CNS
NCI-H522 lung = tested on: NCI-H522 lung
SK-OV-3 ovarian = tested on: SK-OV-3 ovarian
LOX IMVI melanoma = tested on: LOX IMVI melanoma
T-47D breast = tested on: T-47D breast
MCF7 breast = tested on: MCF7 breast
BT-549 breast = tested on: BT-549 breast
786-0 renal = tested on: 786-0 renal
MALME-3M melanoma = tested on: MALME-3M melanoma
COLO 205 colon = tested on: COLO 205 colon
MDA-MB-435 = tested on: MDA-MB-435
SW-620 colon = tested on: SW-620 colon
CAKI-1 renal = tested on: CAKI-1 renal
NCI/ADR-RES ovarian = tested on: NCI/ADR-RES ovarian
HCT-116 colon = tested on: HCT-116 colon
SK-MEL-5 melanoma = tested on: SK-MEL-5 melanoma
OVCAR-5 ovarian = tested on: OVCAR-5 ovarian
M14 melanoma = tested on: M14 melanoma

CN1CCN(Cc2ccc(C(=O)Nc3cccc(Nc4ccc5c(O)cccc5n4)c3)cc2C(F)(F)F)CC1 gave a GI50 (SK-MEL-28 melanoma) of 1.77 µM, a TGI (SK-MEL-28 melanoma) of 3.21 µM and a GI50 (HS 578T breast) of 2.96 µM. The TGI (HS 578T breast) was 21.8 µM, the GI50 (HCC-2998 colon) was 1.89 µM and the TGI (HCC-2998 colon) was 3.36 µM. It also gave a GI50 (SF-295 CNS) of 1.65 µM, a TGI (SF-295 CNS) of 3.16 µM and a GI50 (HOP-92 NSCLC) of 1.32 µM. The TGI (HOP-92 NSCLC) was 5.8 µM, the GI50 (KM12 colon) was 2.3 µM and the TGI (KM12 colon) was 5.23 µM. It also gave a GI50 (NCI-H23 lung) of 2.26 µM, a TGI (NCI-H23 lung) of 4.79 µM and a GI50 (DU-145 prostate) of 4.68 µM. It also gave a TGI (DU-145 prostate) of 17.7 µM, a GI50 (OVCAR-8 ovarian) of 3.56 µM and a TGI (OVCAR-8 ovarian) of 14 µM. The GI50 (SR leukemia) was 4.39 µM, the TGI (SR leukemia) was > 100 µM and the GI50 (SNB-19 CNS) was 2.39 µM. It also gave a TGI (SNB-19 CNS) of 5.15 µM, a GI50 (MOLT-4 leukemia) of 1.86 µM and a TGI (MOLT-4 leukemia) of 5.29 µM. It also gave a GI50 (A549 NSCLC) of 4.5 µM, a TGI (A549 NSCLC) of 20 µM and a GI50 (PC-3 prostate) of 2.53 µM. The TGI (PC-3 prostate) was 14.6 µM, the GI50 (SNB-75 CNS) was 1.85 µM and the TGI (SNB-75 CNS) was 13.7 µM. It also gave a GI50 (OVCAR-4 ovarian) of 7.39 µM, a TGI (OVCAR-4 ovarian) of 21 µM and a GI50 (RXF 393 renal) of 1.66 µM. The TGI (RXF 393 renal) was 3.58 µM, the GI50 (UO-31 renal) was 1.99 µM and the TGI (UO-31 renal) was 4.29 µM. The GI50 (MDA-MB-468 breast) was 1.62 µM, the TGI (MDA-MB-468 breast) was 3.16 µM and the GI50 (A498 renal) was 17.5 µM. The TGI (A498 renal) was 33.3 µM, the GI50 (ACHN renal) was 2.07 µM and the TGI (ACHN renal) was 4.92 µM. For the same molecule, the GI50 (TK-10 renal) was 3.36 µM, the TGI (TK-10 renal) was 13.1 µM and the GI50 (EKVX NSCLC) was 3.75 µM. The TGI (EKVX NSCLC) was 14.1 µM, the GI50 (HCT-15 colon) was 1.82 µM and the TGI (HCT-15 colon) was 3.54 µM. For the same molecule, the GI50 (CCRF-CEM leukemia) was 2.91 µM, the TGI (CCRF-CEM leukemia) was > 100 µM and the GI50 (HT29 colon) was 2.06 µM. For the same molecule, the TGI (HT29 colon) was 4.41 µM, the GI50 (SN12C renal) was 2.34 µM and the TGI (SN12C renal) was 6.03 µM. It also gave a GI50 (HL-60(TB) leukemia) of 2.47 µM, a TGI (HL-60(TB) leukemia) of 5.67 µM and a GI50 (MDA-MB-231 breast) of 1.62 µM. It also gave a TGI (MDA-MB-231 breast) of 3.75 µM, a GI50 (SF-268 CNS) of 3.81 µM and a TGI (SF-268 CNS) of 19 µM. It also gave a GI50 (HOP-62 NSCLC) of 3 µM, a TGI (HOP-62 NSCLC) of 8.85 µM and a GI50 (UACC-62 melanoma) of 1.73 µM. It also gave a TGI (UACC-62 melanoma) of 3.49 µM, a GI50 (OVCAR-3 ovarian) of 3.1 µM and a TGI (OVCAR-3 ovarian) of 8 µM. The GI50 (SK-MEL-2 melanoma) was 1.92 µM, the TGI (SK-MEL-2 melanoma) was 3.68 µM and the GI50 (SF-539 CNS) was 1.67 µM. It also gave a TGI (SF-539 CNS) of 3.08 µM, a GI50 (IGROV1 ovarian) of 4.7 µM and a TGI (IGROV1 ovarian) of 17 µM. The GI50 (NCI-H226 lung) was 19.2 µM, the TGI (NCI-H226 lung) was 41.7 µM and the GI50 (UACC-257 melanoma) was 1.92 µM. It also gave a TGI (UACC-257 melanoma) of 3.86 µM, a GI50 (K-562 leukemia) of 2.42 µM and a TGI (K-562 leukemia) of 24.5 µM. For the same molecule, the GI50 (U251 CNS) was 2.38 µM, the TGI (U251 CNS) was 5.2 µM and the GI50 (NCI-H522 lung) was 1.93 µM. It also gave a TGI (NCI-H522 lung) of 3.97 µM, a GI50 (SK-OV-3 ovarian) of 14.4 µM and a TGI (SK-OV-3 ovarian) of 29.2 µM. The GI50 (LOX IMVI melanoma) was 1.65 µM, the TGI (LOX IMVI melanoma) was 3.01 µM and the GI50 (T-47D breast) was 10.7 µM. For the same molecule, the TGI (T-47D breast) was 26.4 µM, the GI50 (MCF7 breast) was 1.74 µM and the TGI (MCF7 breast) was 3.41 µM. For the same molecule, the GI50 (BT-549 breast) was 15.6 µM, the TGI (BT-549 breast) was 30.2 µM and the GI50 (786-0 renal) was 2.11 µM. For the same molecule, the TGI (786-0 renal) was 4.28 µM, the GI50 (MALME-3M melanoma) was 1.67 µM and the TGI (MALME-3M melanoma) was 3.12 µM. For the same molecule, the GI50 (COLO 205 colon) was 1.99 µM, the TGI (COLO 205 colon) was 3.94 µM and the GI50 (MDA-MB-435) was 1.78 µM. For the same molecule, the TGI (MDA-MB-435) was 3.78 µM, the GI50 (SW-620 colon) was 2.24 µM and the TGI (SW-620 colon) was 4.18 µM. It also gave a GI50 (CAKI-1 renal) of 2.13 µM, a TGI (CAKI-1 renal) of 5.17 µM and a GI50 (NCI/ADR-RES ovarian) of 3.45 µM. The TGI (NCI/ADR-RES ovarian) was 12 µM, the GI50 (HCT-116 colon) was 2.7 µM and the TGI (HCT-116 colon) was > 100 µM. The GI50 (SK-MEL-5 melanoma) was 1.68 µM, the TGI (SK-MEL-5 melanoma) was 3.07 µM and the GI50 (OVCAR-5 ovarian) was 3.24 µM. For the same molecule, the TGI (OVCAR-5 ovarian) was 14.4 µM, the GI50 (M14 melanoma) was 2.21 µM and the TGI (M14 melanoma) was 5.67 µM.
